# Measured values published in patent publication US10519423B1, “High efficiency reprogramming of fibroblasts into cardiomyocytes” (The Regents of the University of Colorado, a body corporate, priority 2015, dated 2019).
# Legend:
# Assay type in all cases: cell-based, mouse
# MEFs [1] = assay: Counting of spontaneously beating cells in infected MEFs
# Method: (§1) Fibroblasts were plated on tissue culture dishes pre-coated with SureCoat (Cellutron) at a density of ˜40 cells/mm^2 before transduction. The fibroblast growth medium was replaced with freshly made viral mixture containing polybrene (Sigma). Twenty-four hours later, fibroblasts were infected again with viral mixture containing polybrene. Twenty fours later, the viral medium was replaced with induction medium, composed of DMEM/199 (4:1) (Gibco), 10% FBS (Gemini), 5% horse serum(Gemini), antibiotics (Gibco), 1× non-essential amino acids (Gibco), 1× essential amino acids (Gibco), 1× B-27 (Gibco), 1× insulin-selenium-transferin (Gibco), 1× vitamin mixture (Gibco), and 1× sodium pyruvate (Gibco). Medium was changed every two-three days until cells were examined.
# Cells in 60 mm dishes were examined under an EVOS® FL Color imaging system (Life Technologies) at 25° C. Beating cells were counted at a field with an area of 0.89 mm^2. Ten to fifteen fields in each dish were randomly chosen.
# MEFs [2] = assay: Pro-fibrotic marker expression in infected MEFs (qPCR, Western blot, αSMA stress fiber immunostaining); conditions: A83-01 0.5 μM, day 7
# Method: Cells were harvested in TRizol reagent (Ambion) for RNA isolation. RNA was extracted with the RNeasy® Plus Universal Mini Kit (Qiagen). RT-PCR was performed using the Superscript III first-strand synthesis system (Invitrogen). qPCR was performed using the SYBR® Green PCR master mix (Applied Biosystems) or StepOne™ Real-Time PCR Systems (Applied Biosystems). Primers are listed in Supplementary Table 1. Ryr2 (Mm00465877_m1) and Myh7 (Mm01319006_91) are Taqman probes (Life technologies).
# Samples were placed on ice and washed with ice-cold DPBS (Gibco) twice, then ice-cold lysis buffer (150 mM NaCl, 50 mM Tris-Cl pH7.4, 1 mM EDTA, 1% Triton, Complete mini tablet (Roche), 1 mM PMSF freshly added before use) was added to the cells. Cells were scraped and transferred to a pre-chilled 1.5 Eppendorf tube and frozen in liquid N2. Before used, the lysate was thawed on ice. The lysate was passed carefully through a 25 g needle for 5 times and then centrifuge at 14,000 rpm for 15 minutes at 4° C. The supernatant was transferred to a new 1.5 ml tube. The protein concentration was measured and 20 ug of lysate for each sample was loaded to SDSPAGE. Proteins were then transferred to PVDF. The PDVF membrane was blocked in 2.5% BSA in 1×TBST for 30 mins at room temperature (RT). The primary antibody was added in blocking buffer for 60 mins at RT. Wash in 1×TBST (20 mM Tris-Cl, pH7.4; 150 mM NaCl; 0.1% Tween20) three times at RT, each for 15 mins. The Secondary antibody was added in blocking buffer for 45 mins at RT. The membrane was washed in 1 XTBST for 15 mins, 1×TBST for 5 mins, then TBS (10 mM Tris-Cl pH8, 150 mM NaCl) for 5 mins. The membrane was resolved with Super Signal® West Pico (34080) or Femto (34095) substrate (Thermo Scientfic). The primary antibodies include: Snail (Cell Signaling, 3879S, 1:1000), Slug (Cell Signaling, 9585S, 1:1000), P-Smad2 (Cell Signaling, 23108P, 1:1000), Smad2 (Cell Signaling, 5339, 1:1000), αSMA (Santa Cruz, SC-32251, 1:10000), cTn1 (Phospho Solutions, 2010-TNI, 1:1000), cTnT (Sigma, T6277, 1:1000), and GAPDH (Ambion, AM4300). The secondary antibodies include: Goat Anti-Mouse IgG (H+L) (Southern Biotech, 1031-05, 1:2000). Goat Anti-Rabbit IgG (Life Technologies, 65-6120, 1:2000). For separation of α- and β-myosin heavy chain, samples were run by modified 6% SDS-PAGE (separating acrylamide/bis ratio 1:100; resolving gel buffer pH 9.0; running gel buffer pH 8.2; β-mercaptoethanol 600 μl/l inner gel buffer). Gels were run overnight at 4° C. and stained with BioSafe Coomassie Blue protein stain.
# Cells were fixed in 2% PFA for 15 min on ice then washed with DPBS (Gibco) three times at RT. The cells were permeabilized in 0.5% Triton X-100 (made in PBS) for 20 min at RT. After washing the cells with DPBS (Gibco), cells were incubated with the primary antibody against α-actinin (Sigma A7811, 1:300), Connexin 43 (Sigma, C6219, 1:500), Troponin T (Thermo Scientific MS-245-P, 1:500), α-SMA (Santa Cruz Biotechnology, SC-32251, 1:800), Myl2 (Proteintech, 10906-1-AP, 1:200), or Myl7 (Proteintech, 17283-1-AP, 1:200) in 10% FBS(Gemini) in DPBS for 1 hour at RT. Cells were wash with DPBS three times, 5 min each. Cell were incubated with the secondary antibody (Alexa Fluor 555 Molecular Probes A21422, 1:1000) and Hoechest (Molecular Probes 33342, 1:5000) for 30 mins at RT.
# [3] = tested on: adult tail-tip fibroblasts (ATTFs); assay: Immunocytochemistry for cTnT and α-actinin in adult tail-tip fibroblasts; conditions: GHMT2m-infected ATTFs; DMSO or A83-01 for 2 weeks
# Method: Hearts or skinned tails from adult C57BL6 mice were cut into small pieces with ˜1 mm diameter. The biopsies were seeded on a 10 cm culture dish and incubated with 10 mL of growth medium (DMEM/Hi glucose (Hyclone), 10% FBS (Gemini:), 1.1% Penicillin-Streptomycin (Gibco) and 1.1% GlutaMAX supplement (Gibco)) at 37° C. with 5% CO2. TTFs migrated out of the biopsies after 3 days. The media were changed every other day. Once the TTFs have reached a 70-80% confluence, the cells were harvested and stored for future use.
# as §1
# Cells were fixed in 2% PFA for 15 min on ice then washed with DPBS (Gibco) three times at RT. […]
smiles,measurement,setting,value
Cc1cccc(-c2nn(C(=S)Nc3ccccc3)cc2-c2ccnc3ccccc23)n1 [A83-01],increase of the number of beating cells,"MEFs [1]; GHMT2m-infected MEFs treated with A83-01, by day 8",8 fold
same,spontaneously contracting cells per cm^2,"MEFs [1]; GHMT-infected MEFs treated with A83-01 (0.5 μM), by 4 weeks",about 4400 cells per cm^2
same,time by which cells started to beat,"MEFs [1]; MEFs, GHMT2m alone, or GHMT-infected cultures treated with Y-27632 (30 μM) or A83-01 (0.5 μM)",≤ 11 days
same,"expression of Fn-EDA, Col1a1 and Col3a1, and formation of αSMA+ stress fibers",MEFs [2]; GHMT- and GHMT2m-infected cultures,inhibited
same,phosphorylation of Smad2,MEFs [2]; MEFs,decreased
same,adult TTFs positive for cTnT and α-actinin,[3],approximately 30%
